Source: PMC5218480 (PLoS ONE, 2017)

Tested on: MV-4-11 cells
Assay: Gene expression microarray analysis (Affymetrix PrimeView) and GSEA
Type: cell-based, human
Parameters: RFU PODN (11730768_x_at) / Fold change /veh PODN (11730768_x_at) / RFU LINC00158 (11744669_a_at) / Fold change /veh LINC00158 (11744669_a_at) / RFU DUSP10 (11751237_a_at) / Fold change /veh DUSP10 (11751237_a_at) / RFU ID3 (11757404_x_at) / Fold change /veh ID3 (11757404_x_at) / RFU PLEKHG5 (11737974_s_at) / Fold change /veh PLEKHG5 (11737974_s_at) / RFU LRRC4B (11730491_at) / Fold change /veh LRRC4B (11730491_at) / RFU GIMAP4 (11747438_a_at) / Fold change /veh GIMAP4 (11747438_a_at) / RFU KRT8 (11758183_x_at) / Fold change /veh KRT8 (11758183_x_at) / RFU CNN1 (11734310_a_at) / Fold change /veh CNN1 (11734310_a_at) / RFU VPS37D (11726825_at) / Fold change /veh VPS37D (11726825_at) / RFU C10orf10 (11716522_x_at) / Fold change /veh C10orf10 (11716522_x_at) / RFU KIR2DL2 /// KIR2DL4 /// KIR2DL5A /// KIR2DL5B /// KIR2DS1 /// KIR2DS2 /// KIR2DS3 /// KIR2DS4 /// KIR3DL3 /// KIR3DL3 /// KIR3DS1 (11738374_at) / Fold change /veh KIR2DL2 /// KIR2DL4 /// KIR2DL5A /// KIR2DL5B /// KIR2DS1 /// KIR2DS2 /// KIR2DS3 /// KIR2DS4 /// KIR3DL3 /// KIR3DL3 /// KIR3DS1 (11738374_at) / RFU C1QL1 (11718748_at) / Fold change /veh C1QL1 (11718748_at) / RFU TMPRSS4 (11747572_a_at) / Fold change /veh TMPRSS4 (11747572_a_at) / RFU HAMP (11756126_x_at) / Fold change /veh HAMP (11756126_x_at) / RFU RNFT2 (11725882_a_at) / Fold change /veh RNFT2 (11725882_a_at) / RFU NR4A2 (11747474_a_at) / Fold change /veh NR4A2 (11747474_a_at) / RFU ABCC12 (11746883_a_at) / Fold change /veh ABCC12 (11746883_a_at) / RFU TMEM136 (11760407_x_at) / Fold change /veh TMEM136 (11760407_x_at) / RFU CLDN22 /// WWC2 (11732394_at) / Fold change /veh CLDN22 /// WWC2 (11732394_at) / RFU HLA-DPB1 (11760878_x_at) / Fold change /veh HLA-DPB1 (11760878_x_at) / RFU SPINT1 (11716480_a_at) / Fold change /veh SPINT1 (11716480_a_at) / RFU GAP43 (11754022_s_at) / Fold change /veh GAP43 (11754022_s_at) / RFU A4GNT (11735810_at) / Fold change /veh A4GNT (11735810_at) / RFU PRB3 (11715151_x_at) / Fold change /veh PRB3 (11715151_x_at) / RFU TUBB4B (11761932_at) / Fold change /veh TUBB4B (11761932_at) / RFU CAPN14 (11732068_a_at) / Fold change /veh CAPN14 (11732068_a_at) / RFU TMCC2 (11721928_a_at) / Fold change /veh TMCC2 (11721928_a_at) / RFU IRGQ (11745062_a_at) / Fold change /veh IRGQ (11745062_a_at) / RFU FAM174B (11720279_a_at) / Fold change /veh FAM174B (11720279_a_at) / RFU TMPRSS4 (11748680_a_at) / Fold change /veh TMPRSS4 (11748680_a_at) / RFU FAM212B (11763350_a_at) / Fold change /veh FAM212B (11763350_a_at) / RFU PLEKHG5 (11743358_a_at) / Fold change /veh PLEKHG5 (11743358_a_at) / RFU ZSCAN30 (11745921_a_at) / Fold change /veh ZSCAN30 (11745921_a_at) / RFU CMKLR1 (11741424_a_at) / Fold change /veh CMKLR1 (11741424_a_at) / RFU LOC101060620 /// MAPK8IP1 (11723275_at) / Fold change /veh LOC101060620 /// MAPK8IP1 (11723275_at) / RFU SPTSSB (11747773_x_at) / Fold change /veh SPTSSB (11747773_x_at) / RFU PRSS12 (11739890_at) / Fold change /veh PRSS12 (11739890_at) / RFU BIN1 (11741810_x_at) / Fold change /veh BIN1 (11741810_x_at) / RFU WNT11 (11732464_a_at) / Fold change /veh WNT11 (11732464_a_at) / RFU C10orf10 (11716521_a_at) / Fold change /veh C10orf10 (11716521_a_at) / RFU C5orf56 (11738089_at) / Fold change /veh C5orf56 (11738089_at) / RFU CYB561 (11721691_x_at) / Fold change /veh CYB561 (11721691_x_at) / RFU ANKRD19P (11752326_a_at) / Fold change /veh ANKRD19P (11752326_a_at) / RFU OR2T12 /// OR2T33 /// OR2T8 (11738714_s_at) / Fold change /veh OR2T12 /// OR2T33 /// OR2T8 (11738714_s_at) / RFU VCAN (11748164_a_at) / Fold change /veh VCAN (11748164_a_at) / RFU JSRP1 (11732532_at) / Fold change /veh JSRP1 (11732532_at) / RFU KRTAP10-11 (11738290_x_at) / Fold change /veh KRTAP10-11 (11738290_x_at) / RFU MYO3A (11730013_a_at) / Fold change /veh MYO3A (11730013_a_at) / RFU EBF3 (11725865_a_at) / Fold change /veh EBF3 (11725865_a_at) / RFU CAMK2N1 (11719241_x_at) / Fold change /veh CAMK2N1 (11719241_x_at) / RFU C5orf56 (11738088_a_at) / Fold change /veh C5orf56 (11738088_a_at) / RFU OLFML3 (11715873_a_at) / Fold change /veh OLFML3 (11715873_a_at) / RFU LOC100653217 /// NTM (11731650_a_at) / Fold change /veh LOC100653217 /// NTM (11731650_a_at) / RFU MAPK11 (11762145_a_at) / Fold change /veh MAPK11 (11762145_a_at) / RFU FIZ1 (11724087_x_at) / Fold change /veh FIZ1 (11724087_x_at) / RFU OASL (11726364_x_at) / Fold change /veh OASL (11726364_x_at) / RFU SOX15 (11748057_x_at) / Fold change /veh SOX15 (11748057_x_at) / RFU CD79A (11719716_a_at) / Fold change /veh CD79A (11719716_a_at) / RFU HIST1H1D (11736915_at) / Fold change /veh HIST1H1D (11736915_at) / RFU CASKIN2 (11723855_a_at) / Fold change /veh CASKIN2 (11723855_a_at) / RFU LOC730098 (11760151_x_at) / Fold change /veh LOC730098 (11760151_x_at) / RFU OR4N2 (11742367_at) / Fold change /veh OR4N2 (11742367_at) / RFU PRRT2 (11749266_a_at) / Fold change /veh PRRT2 (11749266_a_at) / RFU SNX32 (11753110_a_at) / Fold change /veh SNX32 (11753110_a_at) / RFU CDHR5 (11726645_a_at) / Fold change /veh CDHR5 (11726645_a_at) / RFU RCAN1 (11760418_a_at) / Fold change /veh RCAN1 (11760418_a_at) / RFU FAM167A (11723789_a_at) / Fold change /veh FAM167A (11723789_a_at) / RFU FAM26E (11764081_at) / Fold change /veh FAM26E (11764081_at) / RFU ISYNA1 (11749810_s_at) / Fold change /veh ISYNA1 (11749810_s_at) / RFU ACY1 (11761880_at) / Fold change /veh ACY1 (11761880_at) / RFU 11764098_at / Fold change /veh 11764098_at / RFU SAMD14 (11745864_x_at) / Fold change /veh SAMD14 (11745864_x_at) / RFU NPB (11741838_a_at) / Fold change /veh NPB (11741838_a_at) / RFU TMPRSS6 (11731388_a_at) / Fold change /veh TMPRSS6 (11731388_a_at) / RFU KRTAP10-2 (11738614_at) / Fold change /veh KRTAP10-2 (11738614_at) / RFU ARHGAP8 /// PRR5-ARHGAP8 (11727945_x_at) / Fold change /veh ARHGAP8 /// PRR5-ARHGAP8 (11727945_x_at) / RFU KRTAP5-7 /// NADSYN1 (11734609_at) / Fold change /veh KRTAP5-7 /// NADSYN1 (11734609_at) / RFU RASL12 (11751679_a_at) / Fold change /veh RASL12 (11751679_a_at) / RFU CDKN2B (11736163_a_at) / Fold change /veh CDKN2B (11736163_a_at) / RFU PRF1 (11729649_at) / Fold change /veh PRF1 (11729649_at) / RFU, ZNF638 /// ZNF638-IT1 / Fold change vs veh, ZNF638 /// ZNF638-IT1 / RFU, PANK3 / Fold change vs veh, PANK3 / RFU, SH3YL1 / Fold change vs veh, SH3YL1 / RFU, ZEB2 / Fold change vs veh, ZEB2 / RFU, NRIP1 / Fold change vs veh, NRIP1 / RFU, PTTG1IP / Fold change vs veh, PTTG1IP / RFU, CAPN2 / Fold change vs veh, CAPN2 / RFU, MED14 / Fold change vs veh, MED14 / RFU, SNORA58 / Fold change vs veh, SNORA58 / RFU, C1orf63 / Fold change vs veh, C1orf63 / RFU, LRRFIP1 / Fold change vs veh, LRRFIP1 / RFU, NDUFAF7 / Fold change vs veh, NDUFAF7 / RFU, SLC12A2 / Fold change vs veh, SLC12A2 / RFU, IBTK / Fold change vs veh, IBTK / RFU, ESF1 / Fold change vs veh, ESF1 / Fold change vs veh, TMEM50B / RFU, TAOK1 / Fold change vs veh, TAOK1 / RFU, ACBD3 / Fold change vs veh, ACBD3 / RFU, TMA16 / Fold change vs veh, TMA16 / RFU, RWDD3 / Fold change vs veh, RWDD3 / RFU, BCAT1 / Fold change vs veh, BCAT1 / RFU, EDEM3 / Fold change vs veh, EDEM3 / RFU, TMEM33 / Fold change vs veh, TMEM33 / RFU, WDR75 / Fold change vs veh, WDR75 / RFU, AHCTF1 / Fold change vs veh, AHCTF1 / RFU, TFRC / Fold change vs veh, TFRC / RFU, ZDHHC17 / Fold change vs veh, ZDHHC17 / RFU, NOM1 / Fold change vs veh, NOM1 / RFU, ARL8B / Fold change vs veh, ARL8B / RFU, ZBTB11 / Fold change vs veh, ZBTB11 / RFU, TAMM41 / Fold change vs veh, TAMM41 / RFU, KIAA1704 /// LOC100996395 / Fold change vs veh, KIAA1704 /// LOC100996395 / RFU, ING1 / Fold change vs veh, ING1 / RFU, TRMT61B / Fold change vs veh, TRMT61B / RFU, FUBP3 / Fold change vs veh, FUBP3 / RFU, TP53 / Fold change vs veh, TP53 / RFU, TNKS2 / Fold change vs veh, TNKS2 / RFU, ZFP14 / Fold change vs veh, ZFP14 / RFU, ACTR2 / Fold change vs veh, ACTR2 / RFU, PPP3R1 / Fold change vs veh, PPP3R1 / RFU, PIK3R1 / Fold change vs veh, PIK3R1 / RFU, HNRNPA1 / Fold change vs veh, HNRNPA1 / RFU, RNF170 / Fold change vs veh, RNF170 / RFU, ZNF28 / Fold change vs veh, ZNF28 / RFU, RNGTT / Fold change vs veh, RNGTT / RFU, OGT / Fold change vs veh, OGT / RFU, BRD1 / Fold change vs veh, BRD1 / RFU, MARS / Fold change vs veh, MARS / RFU, ZNF655 / Fold change vs veh, ZNF655 / RFU, FAHD1 / Fold change vs veh, FAHD1 / RFU, BDP1 / Fold change vs veh, BDP1 / RFU, LRRCC1 / Fold change vs veh, LRRCC1 / RFU, ARID1A / Fold change vs veh, ARID1A / RFU, ZNF146 / Fold change vs veh, ZNF146 / RFU, ZNF330 / Fold change vs veh, ZNF330 / RFU, GPN3 / Fold change vs veh, GPN3 / RFU, C9orf123 / Fold change vs veh, C9orf123 / RFU, N4BP2L2 / Fold change vs veh, N4BP2L2 / RFU, ARFIP1 / Fold change vs veh, ARFIP1 / RFU, FAM179B / Fold change vs veh, FAM179B / RFU, BCL10 / Fold change vs veh, BCL10 / RFU, UHRF1BP1L / Fold change vs veh, UHRF1BP1L / RFU, BET1 / Fold change vs veh, BET1 / RFU, CNOT2 / Fold change vs veh, CNOT2 / RFU, ZNF268 / Fold change vs veh, ZNF268 / Fold change vs veh, ZNF507 / RFU, DGCR2 / Fold change vs veh, DGCR2 / RFU, WDSUB1 / Fold change vs veh, WDSUB1 / Fold change vs veh, HSP90B1 /// MIR3652 / RFU, ADSS / Fold change vs veh, ADSS / RFU, GK / Fold change vs veh, GK / RFU, ZNF148 / Fold change vs veh, ZNF148 / RFU, TAF9 / Fold change vs veh, TAF9 / RFU, SLC1A5 / Fold change vs veh, SLC1A5 / RFU, SLMO2 / Fold change vs veh, SLMO2 / RFU, ABCC4 / Fold change vs veh, ABCC4 / RFU, LOC101060439 /// RAP1B / Fold change vs veh, LOC101060439 /// RAP1B / RFU, RFX7 / Fold change vs veh, RFX7 / RFU, GTPBP10 / Fold change vs veh, GTPBP10 / RFU, CNEP1R1 / Fold change vs veh, CNEP1R1 / RFU, BIVM-ERCC5 /// ERCC5 / Fold change vs veh, BIVM-ERCC5 /// ERCC5 / RFU, ILF3 / Fold change vs veh, ILF3 / RFU 11762660_at / Fold change /veh 11762660_at / RFU VCAN (11757783_s_at) / Fold change /veh VCAN (11757783_s_at) / RFU DDX43 (11728927_at) / Fold change /veh DDX43 (11728927_at) / RFU KRT8 (11758188_x_at) / Fold change /veh KRT8 (11758188_x_at) / RFU NKD1 (11759106_at) / Fold change /veh NKD1 (11759106_at) / RFU SRD5A1 (11742802_a_at) / Fold change /veh SRD5A1 (11742802_a_at) / RFU TPSAB1 /// TPSB2 (11721975_s_at) / Fold change /veh TPSAB1 /// TPSB2 (11721975_s_at) / RFU GSTM3 (11746129_a_at) / Fold change /veh GSTM3 (11746129_a_at) / RFU IL23R (11737362_x_at) / Fold change /veh IL23R (11737362_x_at) / RFU TMEM51 (11727254_a_at) / Fold change /veh TMEM51 (11727254_a_at) / RFU PIWIL2 (11732686_x_at) / Fold change /veh PIWIL2 (11732686_x_at) / RFU ORM1 (11744905_x_at) / Fold change /veh ORM1 (11744905_x_at) / RFU CCDC152 (11743942_at) / Fold change /veh CCDC152 (11743942_at) / RFU ECM1 (11717891_a_at) / Fold change /veh ECM1 (11717891_a_at) / RFU IL23R (11748794_a_at) / Fold change /veh IL23R (11748794_a_at) / RFU TNFAIP8L3 (11732012_x_at) / Fold change /veh TNFAIP8L3 (11732012_x_at) / RFU MBOAT4 (11741988_at) / Fold change /veh MBOAT4 (11741988_at) / RFU 11764193_at / Fold change /veh 11764193_at / RFU TMEM53 (11763286_at) / Fold change /veh TMEM53 (11763286_at) / RFU MAGEB2 (11727129_at) / Fold change /veh MAGEB2 (11727129_at) / RFU TMEM200A (11744735_a_at) / Fold change /veh TMEM200A (11744735_a_at) / RFU CCDC152 (11751479_a_at) / Fold change /veh CCDC152 (11751479_a_at) / RFU FAM211A (11726209_a_at) / Fold change /veh FAM211A (11726209_a_at) / RFU RGS16 (11746705_a_at) / Fold change /veh RGS16 (11746705_a_at) / RFU VCAN (11755009_s_at) / Fold change /veh VCAN (11755009_s_at) / RFU RHOB (11743442_s_at) / Fold change /veh RHOB (11743442_s_at) / RFU RGS16 (11720943_a_at) / Fold change /veh RGS16 (11720943_a_at) / RFU RGS16 (11720944_at) / Fold change /veh RGS16 (11720944_at) / RFU, VPS4B / Fold change vs veh, VPS4B / RFU, CREB1 / Fold change vs veh, CREB1 / RFU, DNAJC13 / Fold change vs veh, DNAJC13 / RFU, GNAQ / Fold change vs veh, GNAQ / RFU, CDK5R1 / Fold change vs veh, CDK5R1 / RFU, ZRANB3 / Fold change vs veh, ZRANB3 / RFU, CUL4A / Fold change vs veh, CUL4A / RFU, CCNY / Fold change vs veh, CCNY / RFU, UFL1 / Fold change vs veh, UFL1 / RFU, COG3 / Fold change vs veh, COG3 / RFU, DIAPH2 / Fold change vs veh, DIAPH2 / RFU, SKA2 / Fold change vs veh, SKA2 / RFU, AFF3 / Fold change vs veh, AFF3 / RFU, LMF1 / Fold change vs veh, LMF1 / RFU, IPO11 / Fold change vs veh, IPO11 / RFU, DFFB / Fold change vs veh, DFFB / RFU, FOXP1 / Fold change vs veh, FOXP1 / RFU, CARD8 / Fold change vs veh, CARD8 / RFU, STRN3 / Fold change vs veh, STRN3 / RFU, ADK / Fold change vs veh, ADK / RFU, RASSF2 / Fold change vs veh, RASSF2 / RFU, WIPF1 / Fold change vs veh, WIPF1 / RFU, LARP1B / Fold change vs veh, LARP1B / RFU, RASA1 / Fold change vs veh, RASA1 / RFU, RB1 / Fold change vs veh, RB1 / RFU, PPFIA1 / Fold change vs veh, PPFIA1 / RFU, MAT2A / Fold change vs veh, MAT2A / RFU, CCT5 / Fold change vs veh, CCT5 / RFU, WDR92 / Fold change vs veh, WDR92 / RFU, CUX1 / Fold change vs veh, CUX1 / RFU, TTC7A / Fold change vs veh, TTC7A / RFU, TMEM135 / Fold change vs veh, TMEM135 / RFU, DEPTOR / Fold change vs veh, DEPTOR / RFU, CPM / Fold change vs veh, CPM / RFU, DNAJB6 / Fold change vs veh, DNAJB6 / RFU, CACNA2D3 / Fold change vs veh, CACNA2D3 / RFU, DTX4 / Fold change vs veh, DTX4 / RFU, TFCP2 / Fold change vs veh, TFCP2 / RFU, GMCL1 /// GMCL1P1 / Fold change vs veh, GMCL1 /// GMCL1P1 / RFU, AEBP2 / Fold change vs veh, AEBP2 / RFU, SNHG1 /// SNORD22 /// SNORD25 /// SNORD26 /// SNORD27 /// SNORD28 /// SNORD29 /// SNORD31 / Fold change vs veh, SNHG1 /// SNORD22 /// SNORD25 /// SNORD26 /// SNORD27 /// SNORD28 /// SNORD29 /// SNORD31 / Fold change (Aza/veh), C12orf56 (ProbeSet 11735607_a_at) / Fold change (ACY-1035/veh), C12orf56 (ProbeSet 11735607_a_at) / Fold change (Aza/veh), FGFR1OP (ProbeSet 11751329_s_at) / Fold change (ACY-1035/veh), FGFR1OP (ProbeSet 11751329_s_at) / Fold change (Aza/veh), VPS36 (ProbeSet 11739960_a_at) / Fold change (ACY-1035/veh), VPS36 (ProbeSet 11739960_a_at) / RFU SYPL1 (11715823_x_at) / Fold change /veh SYPL1 (11715823_x_at) / RFU IGFBP7 (11715501_s_at) / Fold change /veh IGFBP7 (11715501_s_at) / RFU REEP3 (11722064_at) / Fold change /veh REEP3 (11722064_at) / RFU IGLL1 (11728026_x_at) / Fold change /veh IGLL1 (11728026_x_at): dose or concentration left out as unconfirmed
Settings: MV-4-11 cells, 48 hours

SMILES: Nc1ncn([C@@H]2O[C@H](CO)[C@@H](O)[C@H]2O)c(=O)n1 [azacitidine]
- RFU RGS16 (11720943_a_at): 102.77 RFU
